Among the data in PubChem BioAssay (NCI) are GI50 and TGI values, retold here.

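Tested at 5 concentrations; 48 h exposure; 96-well plates; endpoints linearly interpolated, else capped at highest concentration. GI50 is the concentration that inhibits growth by half. At the TGI there is no net growth.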 Where only a bound is given, the exact number is not on record here.

Common to all, as to test: inhibition of tumour cell growth, NCI panel, 48 h
In assay [1] the test system is UACC-62 melanoma.
Assay [2] relates to HCT-116 colon.
Assay [3] has as its system SK-MEL-28 melanoma.
For assay [4], the system named is SNB-19 CNS.
Assay [5] relates to TK-10 renal.
In assay [6] the test system is UO-31 renal.
Assay [7] deals with OVCAR-4 ovarian.
For assay [8], the system named is SN12C renal.
Assay [9] relates to DU-145 prostate.
Assay [10] has as its system U251 CNS.

Turning to `CCNC(=O)c1ccc2c(c1)nc(-c1ccc(Cl)cc1)n2-c1cc(C(C)(C)C)[nH]n1`, the GI50 in [1] is 2.05 µM; in assay [2], 3.17 µM; in [3] it was 2.78 µM; in assay [4] it was 3.97 µM; in assay [5], 6.14 µM; in assay [6], 3.46 µM. For the same molecule, the GI50 in assay [7] is 5.43 µM; in [8], 3.79 µM; in assay [9], 3.72 µM; in assay [10] it was 3.28 µM. The TGI in assay [1] is 7.61 µM; in assay [2], 12.3 µM; in [3], 11.7 µM; in assay [4], greater than 100 µM; in assay [5], 71.3 µM; in [6] it was 44.5 µM. The TGI in assay [7] is greater than 100 µM; in assay [8], 70 µM; in [9], 34.9 µM; in assay [10] it was 12.2 µM.
